The assay concerns the target human GLP1R (hGLP1R) (Homo sapiens, UniProt P43220). Briefly: Human GLP1R cAMP agonist assay (GloSensor). In kind it is cell-based. The following applies: HEK293-SNAP-hGLP1R-GloSensor cells; for Emax: cAMP, normalized to GLP1(7-36) maximum response, read-out: Emax mean; for EC50: intracellular cAMP, mean n=3 where SEM is given. In outline: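 HEK293 cells stably expressing SNAP-tagged hGLP1R and the GloSensor-22F cAMP luciferase biosensor, pre-loaded 2 h with substrate, then exposed 12 min at rt to compound (30–0.06 μM, 0.5 mM IBMX, 0.1% BSA). Luminescence normalized to 2 nM GLP1(7-36); EC50 and Emax from 4-parameter logistic fit.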

The Emax is the greatest response seen or fitted, relative to the assay's reference. One may read the EC50 as the concentration giving half of the maximal effect. Higher therefore signals weaker potency.

Sequence of human GLP1R (hGLP1R) (P43220 24-463): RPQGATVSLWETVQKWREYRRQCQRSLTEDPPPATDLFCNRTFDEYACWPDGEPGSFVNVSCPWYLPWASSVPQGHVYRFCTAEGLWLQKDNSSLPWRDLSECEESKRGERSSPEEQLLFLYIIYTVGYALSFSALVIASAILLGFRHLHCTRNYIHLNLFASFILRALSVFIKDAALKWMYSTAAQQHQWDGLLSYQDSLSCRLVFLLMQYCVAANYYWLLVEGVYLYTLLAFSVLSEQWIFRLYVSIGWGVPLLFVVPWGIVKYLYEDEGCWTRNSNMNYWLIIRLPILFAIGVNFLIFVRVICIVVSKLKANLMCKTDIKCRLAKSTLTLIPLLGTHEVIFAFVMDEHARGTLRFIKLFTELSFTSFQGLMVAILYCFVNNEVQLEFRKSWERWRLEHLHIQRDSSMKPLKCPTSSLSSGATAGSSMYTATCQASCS

Turning to `C[C@]1(c2ccc(Cl)cc2F)Oc2cccc(C3CCN(Cc4ncc(/C=C/C(=O)O)n4C[C@@H]4CCO4)CC3)c2O1` [Compound C-1, (E)-3-(2-((4-((S)-2-(4-chloro-2-fluorophenyl)-2-methylbenzo[d][1,3]dioxol-4-yl)piperidin-1-yl)methyl)-1-(((S)-oxetan-2-yl)methyl)-1H-imidazol-5-yl)acrylic acid], the Emax stood at 111% and the response was half-maximal at 0.0197 nM (EC50).

With `Cc1nc(CN2CCC(c3cccc4c3O[C@@](C)(c3ccc(Cl)cc3F)O4)CC2)n(C[C@@H]2CCO2)c1/C=C/C(=O)O` [Compound C-5, (E)-3-(2-((4-((S)-2-(4-chloro-2-fluorophenyl)-2-methylbenzo[d][1,3]dioxol-4-yl)piperidin-1-yl)methyl)-4-methyl-1-(((S)-oxetan-2-yl)methyl)-1H-imidazol-5-yl)acrylic acid], the Emax came out at 110% and it took 0.0129 nM to reach a half-maximal effect (EC50).

Take `C[C@]1(c2ccc(Cl)cc2F)Oc2cccc(C3CCN(Cc4nc(C(F)(F)F)c(C(=O)O)n4C[C@@H]4CCO4)CC3)c2O1` [Compound C-7, 2-((4-((S)-2-(4-chloro-2-fluorophenyl)-2-methylbenzo[d][1,3]dioxol-4-yl)piperidin-1-yl)methyl)-1-(((S)-oxetan-2-yl)methyl)-4-(trifluoromethyl)-1H-imidazole-5-carboxylic acid]: the maximum response (Emax) is 109% and the concentration for a half-maximal effect (EC50) is 0.847 nM.

As to `C[C@]1(c2ccc(Cl)cc2F)Oc2cccc(C3CCN(Cc4nc(/C=C/C(=O)O)cn4C[C@@H]4CCO4)CC3)c2O1` [Compound C-2, (E)-3-(2-((4-((S)-2-(4-chloro-2-fluorophenyl)-2-methylbenzo[d][1,3]dioxol-4-yl)piperidin-1-yl)methyl)-1-(((S)-oxetan-2-yl)methyl)-1H-imidazol-4-yl)acrylic acid], the maximum response (Emax) turned out to be 109% and the concentration giving a half-maximal response (EC50) was found to be 2.23 nM.

Source of the values: patent US20240182456A1, “2-((4-((S)-2-(4-CHLORO-2-FLUOROPHENYL)-2-METHYLBENZO[D][1,3]DIOXOL-4-YL)PIPERIDIN-1-YL)METHYL)-1-(((S)-OXETAN-2-YL)METHYL)-1H-IMIDAZOLE DERIVATIVES AS ACTIVATORS OF THE GLP1 RECEPTOR FOR THE TREATMENT OF OBESITY” (Novartis AG, priority 2021, published 2024).
